Assay results taken from patent US20250177303A1, “A DRUG NANOCARRIER SYSTEM TO DELIVER A COMBINATION OF TLR AGONISTS AND/OR A LIPOXIN PLUS IMMUNOGENIC CELL DEATH INDUCING CHEMOTHERAPEUTIC AGENTS FOR CANCER IMMUNOTHERAPY” (The Regents of the University of California, priority 2022, published 2025).
Entries after “also recorded” stand apart in the source; their conditions may differ. Values belong to the molecule of their own block, whether it stands above or below them.

Columns and labels:
TGF-β activated hPSCs = assay: IL-6 secretion from TGF-β activated human pancreatic stellate cells (ELISA); assay type: cell-based; settings: 1-100 nM LXA4, 48 h, TGF-β 20 ng/mL
Procedure: HPaSteCs were seeded at 2500 cells/well in a 96-well plate and activated with TGF-p (20 ng/mL) overnight. The next day, hPSCs were treated with 1-100 nM of LXA4 in free and liposomal form. After 48 h of incubation, the supernatant was collected and analysed for IL-6 secretion with ELISA. […] A possible explanation is provided by the schematic in FIG. 11, panel A.

[1] = cited from earlier work
[2] = tested on: LN-resident dendritic cells (LN-DCs); assay: Subcutaneous KPC tumor model, flow cytometry of inguinal lymph node dendritic cells; assay type: in vivo, B6129SF1/J mice; settings: inguinal lymph nodes
Text: Subcutaneous tumor implantation in the rear animal flank allows lymphatic drainage to the regional inguinal lymph nodes (LNs), which were harvested to assess therapeutic impact on LN-resident dendritic cells (LN-DCs). This reasoning is premised on the possibility that LN participation in the cancer immunity cycle may be able to strengthen the ICD response by increasing recruitment of newly-activated cytotoxic T-cells back to the principal tumor site. Following inguinal LN harvesting and cellular release, initial flow cytometry gating selected singlet live cells (FIG. 26). Further gating on the CD11c^+/CD45^+ DC subset was used to quantify CD80 and CD86 expression, representative of the surface receptors on an activated DC subset, participating in T-cell activation. […] We also obtained evidence that the response boosting involves LNDC participation as a key component of the cancer immunity cycle.
Following animal sacrifice, photographs were obtained of the harvested tumors, which were subsequently fixed in 10% formalin for IHC staining by the UCLA Translational Pathology Core Laboratory. Image processing was performed using Aperio ImageScope software (Leica). IHC analysis was performed to assess tumor staining intensity for CD8 and FoxP3. Additionally, we assessed the immune response in the draining inguinal lymph nodes (LNs) harvested from the sacrificed animals. […]

RAW264.7 macrophages = assay: RAW264.7 macrophage activation (CD80 flow cytometry, IL-12p40 and TNF-α ELISA); assay type: cell-based, murine; settings: RAW264.7, 10 μM, 21 h
Procedure: (§1) Having confirmed effective intracellular delivery of TLR7 activation, the next task was to determine the effect of the 3M-silicasome in the ex vivo activation of macrophages and DCs. These assays were performed in RAW264.7 macrophages and murine bone marrow-derived dendritic cells (BMDCs). RAW264.7 and BMDCs were treated with 10 μM each of R848 (positive control), free 3M-052, or the 3M-silicasome for 21 hours before assessing CD80 expression (FIG. 16, panels C and E). […] We also quantified the release of two key pro-inflammatory cytokines, IL-12p40 and TNF-α by ELISA in the same cell types, using similar stimuli.
RAW264.7 cells (1×10^5 cells/well) were cultured in 48-well plates for 24 h, before the addition of PBS or 10 μM concentrations of R848, free 3M-052 or the 3M-silicasome for a further 21 h. Immature BMDCs (5×10^5 cells/well) were cultured in 24-well plates, receiving the same dose of R848, free 3M-052, and 3M-silicasome for 21 h. […]
(§2) For flow cytometry analysis of surface markers, cells were washed with cell staining buffer, before staining RAW264.7 cells with anti-CD80 or BMDCs with FITC-conjugated anti-CD11c and anti-CD80 on ice, according to the manufacturer's instructions. The assessment of the differentiation and activation markers were evaluated by flow cytometry (LSRFortessa; BD Biosciences), analyzed by FlowJo software.

subcutaneous KPC tumor [3] = assay: Subcutaneous KPC tumor model, tumor growth (3M-052/IRIN carriers); settings: for Inhibition of tumor growth compared to saline: day 20, p<0.001
Procedure: The schematic in FIG. 6, panel A depicts the treatment outline for conducting the subcutaneous KPC tumor experiment. […] Tumor-bearing mice were randomly divided into 5 groups (n=6 or 7), which received IV administration of the different treatment modalities, every 3-4 days on 4 occasions. […] IRIN was administered at 40 mg/kg while the 3M-052 dose was delivered at 2 mg/kg. FIG. 6, panel B, depicts the average subcutaneous KPC tumor growth kinetics, as determined by tumor volume. Tumor size was measured every 2 days, and tumor volume was calculated by the formula: tumor volume (mm^3)=(length in mm)×(width in mm)^2/2.
KPC cells were subcutaneously injected into the right flank of female B6129SF1/J mice for in vivo experimentation. […] Subcutaneous tumor sizes were monitored every 2 days.

[4] = tested on: murine bone marrow-derived dendritic cells (BMDCs); assay: BMDC activation (flow cytometry, IL-12p40 and TNF-α ELISA); assay type: cell-based; settings: 10 μM, 21 h
Procedure: as §1
Bone marrow-derived dendritic cells (BMDCs) were prepared according to our established procedure, with a slight modification.^[42] Bone marrow cells flushed from the femur and tibia of B6/129 mice were collected and red blood cells were lysed by incubating in ACK Lysing Buffer. […]
as §2

[5] = Pharmacokinetics of 3M-052 and IRIN in plasma (HPLC); assay type: in vivo, healthy B6129SF1/J mice; settings: single IV, 3M-052 2 mg/kg, IRIN 40 mg/kg
Procedure: Free 3M-052 and IRIN were extracted by methanol and measured by HPLC.
The harvested tumor and organ samples, collected in the drug biodistribution experiment, were weighed and homogenized. The collected plasma, tumor, and organ homogenates were extracted in methanol, using 1:5, 1:4, and 1:3 v/v dilutions, respectively. The extracts were vortexed for 20 s and centrifuged at 13000 rpm for 10 min, following which the drug-containing supernatants were filtrated through 0.22 μm filters to perform HPLC analysis. The HPLC system is operated by a Knauer Smartline Pneumatic Pump, C18 column, K-2600 spectrophotometer, and Gina data acquisition software. The mobile phase consisted of mobile phase A (0.01% trifluoroacetic acid in water) and mobile phase B (0.01% trifluoroacetic acid in methanol) as 70% A and 30% B (v/v). A 20 μL of the sample was injected to measure the 3M-052 and IRIN absorptions at 320 and 360 nm. The 3M-052 and IRIN standard curves were generated over the maximal concentrations of 40 and 100 μg/mL respectively.

[6] = Subcutaneous KPC tumor model, body weight and blood parameters (safety); assay type: in vivo, B6129SF1/J mice; settings: blood on day 21, 4 IV injections, 3M-052 2 mg/kg, IRIN 40 mg/kg
Procedure: Table 10. A subcutaneous KPC tumor model was established in B6129SF1/J mice. […] Blood was collected from the sacrificed animals on day 21. The biochemical parameters were assayed by UCLA Division of Laboratory Animal Medicine (DLAM) diagnostic laboratory services. These parameters include white blood cell (WBC), alkaline phosphatase (ALP), aspartate aminotransferase (AST), alanine aminotransferase (ALT), blood urea nitrogen (BUN), creatinine, calcium, and phosphorus.
A subcutaneous KPC tumor model was established in immunocompetent B6129SF1/J mice, using protocols approved by the UCLA Animal Research Committee. Briefly, 100 μL of a DMEM/Matrigel (1:1 v/v) suspension, containing 1×10^6 KPC cells, was subcutaneously injected into the right flank of female B6129SF1/J mice, 8-10 weeks old. […] Injections were given every 3-4 days, using the dosing schedule that delivers the equivalent of 2 mg/kg and 40 mg/kg, respectively, for 3M-052 and IRIN. Subcutaneous KPC tumor size and animal weight were monitored every 2 days. The tumor size was calculated according to the formula: (Width^2×Length)/2.
We also collected blood for separating serum after centrifugation at 3500 rpm for 20 min. The following biochemical parameters were assayed by UCLA Division of Laboratory Animal Medicine (DLAM) diagnostic laboratory services: white blood cell (WBC), alkaline phosphatase (ALP), aspartate aminotransferase (AST), alanine aminotransferase (ALT), blood urea nitrogen (BUN), creatinine, calcium, and phosphorus.

orthotopic KPC-luc tumor = assay: Orthotopic KPC-luc tumor model, efficacy (IVIS bioluminescence, tumor weight, metastasis); assay type: in vivo, B6129SF1/J mice
Procedure: FIG. 8, panel A, depicts the experimental outline of the study conducted by orthotopic implantation KPC-luc tumor cells in the pancreatic tail of syngeneic mice. In brief, 50 μL of PBS/Matrigel (6:4 v/v), containing 0.8×10^6 KPC-luc cells was orthotopically injected into the tail of the pancreas of female B6129SF1/J mice 8 days before the onset of treatment. […] FIG. 8, panel C depicts the average quantitative tumor bioluminescence in each group at day 21, as calculated by IVIS software. **p<0.01.
Mice were sacrificed on day 21. FIG. 8, panel D, depicts the IVIS imaging performed on the ex vivo explanted tumor tissues and potential metastatic organs on day 21. […] FIG. 8, panel G depicts animal body weights over a time period of 21 days.
50 μL of a DMEM/Matrigel (6:4 v/v) suspension, containing 8×10^5 KPC-luc cells, was injected into the tail of the pancreas in female B6129SF1/J mice by a survival surgery procedure. […] The dose equivalents of 3M-052 and IRIN were 2 mg/kg and 40 mg/kg per dose, respectively. Animal weight was monitored every 2 days.
To perform the bioluminescence imaging of the luciferase-expressing tumors, mice were injected intraperitoneal with 50 mg/kg D-Luciferin on day 7, 15, 18, and 21. Ex vivo IVIS images of tumors and major organs, collected from sacrificed animals, were obtained on day 21. In addition, we also obtained photographs and weighed the harvested tumors, which were subsequently fixed in 10% formalin for the performance of IHC staining.

KPC cells = assay: In vitro killing of KPC cells, CCK-8 assay; assay type: cell-based, murine; settings: 50-500 μM IRIN, 48 h
Procedure: 20 μL of CCK-8 solution was added to each well and the plates were incubated for an additional 1-2 h in an incubator. The absorbance of each well was assessed at 450 nm in a microplate reader. Cytotoxicity (% dead cells) was calculated using the formula: (ODsample−ODblank)/(ODcontrol−ODblank)×100.

subcutaneous KPC tumor [7] = assay: IHC of T lymphocytes and perforin in KPC tumors (lipo-LXA4-IRIN study); assay type: in vivo, B6129SF1/J mice; settings: normalized over no treatment control

Structure (SMILES): CCCCC[C@H](O)/C=C/C=C\C=C\C=C\[C@@H](O)[C@@H](O)CCCC(=O)O [LXA4, lipoxin A4]
IL-6 release (TGF-β activated hPSCs): significantly inhibited IL-6 release in a concentration-dependent manner

Structure (SMILES): CC(=O)O[C@@]12CO[C@@H]1C[C@H](O)[C@@]1(C)C(=O)[C@H](O)C3=C(C)[C@@H](OC(=O)[C@H](O)[C@@H](NC(=O)OC(C)(C)C)c4ccccc4)C[C@@](O)([C@@H](OC(=O)c4ccccc4)[C@H]21)C3(C)C [docetaxel]
Ethanol solubility [1]: ~100 mg/mL

Clearance from the blood circulation [5]: rapidly cleared
Structure (SMILES): CCCCCCCCCCCCCCCCCC(=O)NCCCCOn1c(CCCC)nc2c(N)nc3ccccc3c21 [free 3M-052, Telratolimod]
CD80 and CD86 expression in CD11c+/CD45+ population ([2]; 4 rounds of treatment): up-regulated
Percentage of CD45+/CD11c+ LN-DCs ([2]; day 21, compared to saline and free IRIN): increase in the percentage of CD45^+/CD11c^+ LN-DCs
CD80 cell surface expression (RAW264.7 macrophages): significant increase in cell surface expression of a maturation marker
IL-12p40 and TNF-α release (RAW264.7 macrophages; ELISA): higher responses
Effect on tumor volume growth (subcutaneous KPC tumor [3]; IV every 3-4 days x4, 3M-052 2 mg/kg, IRIN 40 mg/kg): modest effects
Inhibition of tumor growth compared to saline (subcutaneous KPC tumor [3]): statistically significant compared to the saline control
Inhibition of tumor growth compared between treatments (subcutaneous KPC tumor [3]; tumor volume, comparison among treatment groups): significantly reduced compared to treatment with single-drug or dual-drug silicasomes
CD80 cell surface expression [4]: significant increase in cell surface expression of a maturation marker
IL-12p40 and TNF-α release ([4]; ELISA): higher responses
ALP [6]: 64.3 ± 7.6 U/L
ALT [6]: 32.3 ± 11.9 U/L
AST [6]: 95.0 ± 14.0 U/L
BUN [6]: 16.0 ± 2.0 mg/dL
Calcium [6]: 8.7 ± 0.2 mg/dL
Creatinine [6]: 0.0 ± 0.0 mg/dL
Phosphorous [6]: 7.2 ± 1.3 mg/dL
WBC [6]: 3.5 ± 0.1 10^3/μL

Structure (SMILES): CCc1c2c(nc3ccc(OC(=O)N4CCC(N5CCCCC5)CC4)cc13)-c1cc3c(c(=O)n1C2)COC(=O)[C@]3(O)CC [free IRIN, Irinotecan]
Tumor bioluminescence intensity (orthotopic KPC-luc tumor; day 21, IV every 3 days x4, compared to saline or free IRIN): little effect on orthotopic tumors
Metastatic spread to surrounding organs (orthotopic KPC-luc tumor; ex vivo IVIS imaging, day 21): same metastatic burden; also recorded: evidence for splenic involvement
Inhibition of tumor growth compared to saline (subcutaneous KPC tumor [3]): statistically significant compared to the saline control
Cytotoxicity to KPC cells (KPC cells): dose-dependent cytotoxicity, with a steeper decline in viability
ALP [6]: 91.0 ± 1.7 U/L
AST [6]: 66.3 ± 22.2 U/L
BUN [6]: 17.0 ± 1.0 mg/dL
Calcium [6]: 8.9 ± 0.1 mg/dL
Creatinine [6]: 0.0 ± 0.1 mg/dL
Phosphorous [6]: 7.4 ± 0.5 mg/dL
WBC [6]: 3.9 ± 0.5 10^3/μL
Perforin signal (subcutaneous KPC tumor [7]): increase in the perforin levels compared to the no-treatment control

Structure (SMILES): O=C1c2c(O)ccc(O)c2C(=O)c2c(NCCNCCO)ccc(NCCNCCO)c21 [mitoxantrone]
Water solubility ([1]; drugbank): 89 mg/mL
